Data as given in publication PMC9927415, “Tyrosine Kinase Inhibitors Display Potent Activity against Cryptosporidium parvum” (Microbiology Spectrum, 2022).

Tests used:
[1] = biological target: T1, PTK6 (Homo sapiens, UniProt Q13882); test: KINOMEscan competitive binding; conditions: n=1, read-out: Percent inhibition, PTK6
T1 construct: purchased DiscoverX (KINOMEscan)

[2] = biological target: T2, panel of 203 kinases (Homo sapiens, UniProt P51955); test: KINOMEscan competitive binding, whole panel; conditions: 10 µM, n=1; kinase NEK2; read-out: Percent inhibition NEK2
T2 construct: purchased DiscoverX (KINOMEscan)
T2 sequence (P51955 1-445): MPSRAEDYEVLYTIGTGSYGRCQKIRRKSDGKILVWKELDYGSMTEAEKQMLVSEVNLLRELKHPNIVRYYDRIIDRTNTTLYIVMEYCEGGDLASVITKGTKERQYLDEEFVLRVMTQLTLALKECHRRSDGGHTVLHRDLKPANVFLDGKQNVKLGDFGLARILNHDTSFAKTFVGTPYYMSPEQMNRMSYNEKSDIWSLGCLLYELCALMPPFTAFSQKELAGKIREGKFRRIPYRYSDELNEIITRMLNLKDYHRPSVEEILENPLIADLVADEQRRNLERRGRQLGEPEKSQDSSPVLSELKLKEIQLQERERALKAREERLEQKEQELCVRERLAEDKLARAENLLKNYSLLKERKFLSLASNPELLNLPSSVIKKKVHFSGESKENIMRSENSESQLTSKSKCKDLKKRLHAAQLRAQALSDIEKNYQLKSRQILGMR
Procedure, shortened: (§1)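 T7 phage-fused kinases; compound displaces immobilized ATP-site probe ligand; bead-bound kinase quantified; % inhibition reported.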

[3] = biological target: T3, panel of 203 kinases (Homo sapiens, UniProt Q8IVH8); test: KINOMEscan competitive binding, whole panel; conditions: 10 µM, n=1; kinase MAP4K3; read-out: Percent inhibition MAP4K3
T3 construct: purchased DiscoverX (KINOMEscan)
T3 sequence (Q8IVH8 1-894): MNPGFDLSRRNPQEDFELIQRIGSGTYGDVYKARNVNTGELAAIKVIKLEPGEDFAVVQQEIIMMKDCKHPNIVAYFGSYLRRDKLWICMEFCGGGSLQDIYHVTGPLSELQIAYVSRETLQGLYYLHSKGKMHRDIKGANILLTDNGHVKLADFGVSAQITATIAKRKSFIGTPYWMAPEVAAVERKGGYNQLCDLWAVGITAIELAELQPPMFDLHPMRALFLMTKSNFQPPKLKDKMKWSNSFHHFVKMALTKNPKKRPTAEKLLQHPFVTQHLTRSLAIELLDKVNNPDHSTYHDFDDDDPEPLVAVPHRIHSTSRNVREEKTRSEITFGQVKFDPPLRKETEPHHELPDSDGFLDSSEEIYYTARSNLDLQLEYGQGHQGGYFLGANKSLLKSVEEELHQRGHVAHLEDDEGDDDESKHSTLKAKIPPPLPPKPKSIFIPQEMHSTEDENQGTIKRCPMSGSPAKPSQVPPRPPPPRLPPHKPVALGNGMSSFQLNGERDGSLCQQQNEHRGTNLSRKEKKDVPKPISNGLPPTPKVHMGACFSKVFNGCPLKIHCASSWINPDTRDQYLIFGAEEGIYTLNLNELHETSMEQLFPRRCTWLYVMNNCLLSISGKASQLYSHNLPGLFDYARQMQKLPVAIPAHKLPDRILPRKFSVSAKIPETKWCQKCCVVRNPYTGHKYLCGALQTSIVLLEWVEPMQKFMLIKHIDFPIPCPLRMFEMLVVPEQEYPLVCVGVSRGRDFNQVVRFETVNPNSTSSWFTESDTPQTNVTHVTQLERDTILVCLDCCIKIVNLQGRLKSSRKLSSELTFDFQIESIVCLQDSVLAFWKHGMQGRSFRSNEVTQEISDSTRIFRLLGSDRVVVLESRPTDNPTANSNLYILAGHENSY
Procedure, shortened: as §1

[4] = biological target: T4, panel of 203 kinases (Homo sapiens, UniProt P29317); test: KINOMEscan competitive binding, whole panel; conditions: 10 µM, n=1; kinase EPHA2; read-out: Percent inhibition EPHA2
T4 construct: purchased DiscoverX (KINOMEscan)
Procedure, shortened: as §1

[5] = biological target: T5, PRKX (Homo sapiens, UniProt P51817); test: KINOMEscan competitive binding; conditions: n=1, read-out: Percent inhibition, PRKX
T5 construct: purchased DiscoverX (KINOMEscan)
T5 sequence (P51817 1-358): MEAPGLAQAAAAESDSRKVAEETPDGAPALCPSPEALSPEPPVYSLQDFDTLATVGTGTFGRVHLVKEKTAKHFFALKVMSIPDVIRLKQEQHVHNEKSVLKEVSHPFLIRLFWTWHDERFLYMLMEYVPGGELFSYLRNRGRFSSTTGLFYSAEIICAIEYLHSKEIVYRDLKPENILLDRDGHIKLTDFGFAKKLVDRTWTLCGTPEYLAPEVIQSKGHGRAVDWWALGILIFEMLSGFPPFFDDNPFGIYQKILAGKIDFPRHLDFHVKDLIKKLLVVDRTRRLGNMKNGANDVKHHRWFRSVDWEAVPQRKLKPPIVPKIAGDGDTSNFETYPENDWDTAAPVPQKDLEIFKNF

[6] = biological target: T6, STK33 (Homo sapiens, UniProt Q9BYT3); test: KINOMEscan competitive binding; conditions: n=1, read-out: Percent inhibition, STK33
T6 construct: purchased DiscoverX (KINOMEscan)

[7] = biological target: T7, TNK2 (Homo sapiens, UniProt Q07912); test: KINOMEscan competitive binding; conditions: n=1, read-out: Percent inhibition, TNK2
T7 construct: purchased DiscoverX (KINOMEscan)

[8] = biological target: T8, TLK2 (Homo sapiens, UniProt Q86UE8); test: KINOMEscan competitive binding; conditions: n=1, read-out: Percent inhibition, TLK2
T8 construct: purchased DiscoverX (KINOMEscan)

[9] = biological target: T9, PDPK1 (Homo sapiens, UniProt O15530); test: KINOMEscan competitive binding; conditions: n=1, read-out: Percent inhibition, PDPK1
T9 construct: purchased DiscoverX (KINOMEscan)
T9 sequence (O15530 1-556): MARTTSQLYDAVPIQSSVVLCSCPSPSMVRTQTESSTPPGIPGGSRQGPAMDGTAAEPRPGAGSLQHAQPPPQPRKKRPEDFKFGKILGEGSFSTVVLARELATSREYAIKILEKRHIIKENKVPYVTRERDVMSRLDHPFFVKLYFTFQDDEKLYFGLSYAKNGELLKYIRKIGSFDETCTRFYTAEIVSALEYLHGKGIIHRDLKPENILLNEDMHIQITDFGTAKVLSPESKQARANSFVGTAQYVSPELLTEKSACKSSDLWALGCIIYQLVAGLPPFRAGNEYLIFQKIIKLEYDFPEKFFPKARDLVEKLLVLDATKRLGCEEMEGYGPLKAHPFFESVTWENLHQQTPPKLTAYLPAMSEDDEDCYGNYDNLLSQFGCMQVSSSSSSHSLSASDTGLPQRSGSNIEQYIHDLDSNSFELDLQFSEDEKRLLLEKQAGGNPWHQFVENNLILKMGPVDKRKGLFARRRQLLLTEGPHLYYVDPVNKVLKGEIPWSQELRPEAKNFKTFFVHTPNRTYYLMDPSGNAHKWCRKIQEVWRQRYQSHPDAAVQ

T8 sequence (Q86UE8 whole entry): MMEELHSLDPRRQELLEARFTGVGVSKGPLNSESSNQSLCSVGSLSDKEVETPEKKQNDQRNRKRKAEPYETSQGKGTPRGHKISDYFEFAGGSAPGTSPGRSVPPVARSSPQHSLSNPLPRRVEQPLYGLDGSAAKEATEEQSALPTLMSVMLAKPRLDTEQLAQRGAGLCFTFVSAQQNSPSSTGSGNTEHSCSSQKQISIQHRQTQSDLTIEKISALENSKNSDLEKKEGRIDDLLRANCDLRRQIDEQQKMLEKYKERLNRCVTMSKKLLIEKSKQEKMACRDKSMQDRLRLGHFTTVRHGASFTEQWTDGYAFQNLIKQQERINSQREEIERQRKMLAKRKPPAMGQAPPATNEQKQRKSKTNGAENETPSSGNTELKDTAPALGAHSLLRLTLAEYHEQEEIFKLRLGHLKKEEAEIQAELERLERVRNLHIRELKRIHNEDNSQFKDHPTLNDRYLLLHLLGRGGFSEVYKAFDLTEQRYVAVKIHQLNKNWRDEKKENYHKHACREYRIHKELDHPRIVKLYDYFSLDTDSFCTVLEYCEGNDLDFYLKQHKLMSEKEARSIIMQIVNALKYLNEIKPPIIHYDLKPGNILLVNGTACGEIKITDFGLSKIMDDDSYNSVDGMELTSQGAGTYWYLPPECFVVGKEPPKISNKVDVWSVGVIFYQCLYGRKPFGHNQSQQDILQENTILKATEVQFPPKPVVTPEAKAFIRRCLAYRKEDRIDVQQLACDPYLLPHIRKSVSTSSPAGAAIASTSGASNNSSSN
T4 sequence (P29317 24-976): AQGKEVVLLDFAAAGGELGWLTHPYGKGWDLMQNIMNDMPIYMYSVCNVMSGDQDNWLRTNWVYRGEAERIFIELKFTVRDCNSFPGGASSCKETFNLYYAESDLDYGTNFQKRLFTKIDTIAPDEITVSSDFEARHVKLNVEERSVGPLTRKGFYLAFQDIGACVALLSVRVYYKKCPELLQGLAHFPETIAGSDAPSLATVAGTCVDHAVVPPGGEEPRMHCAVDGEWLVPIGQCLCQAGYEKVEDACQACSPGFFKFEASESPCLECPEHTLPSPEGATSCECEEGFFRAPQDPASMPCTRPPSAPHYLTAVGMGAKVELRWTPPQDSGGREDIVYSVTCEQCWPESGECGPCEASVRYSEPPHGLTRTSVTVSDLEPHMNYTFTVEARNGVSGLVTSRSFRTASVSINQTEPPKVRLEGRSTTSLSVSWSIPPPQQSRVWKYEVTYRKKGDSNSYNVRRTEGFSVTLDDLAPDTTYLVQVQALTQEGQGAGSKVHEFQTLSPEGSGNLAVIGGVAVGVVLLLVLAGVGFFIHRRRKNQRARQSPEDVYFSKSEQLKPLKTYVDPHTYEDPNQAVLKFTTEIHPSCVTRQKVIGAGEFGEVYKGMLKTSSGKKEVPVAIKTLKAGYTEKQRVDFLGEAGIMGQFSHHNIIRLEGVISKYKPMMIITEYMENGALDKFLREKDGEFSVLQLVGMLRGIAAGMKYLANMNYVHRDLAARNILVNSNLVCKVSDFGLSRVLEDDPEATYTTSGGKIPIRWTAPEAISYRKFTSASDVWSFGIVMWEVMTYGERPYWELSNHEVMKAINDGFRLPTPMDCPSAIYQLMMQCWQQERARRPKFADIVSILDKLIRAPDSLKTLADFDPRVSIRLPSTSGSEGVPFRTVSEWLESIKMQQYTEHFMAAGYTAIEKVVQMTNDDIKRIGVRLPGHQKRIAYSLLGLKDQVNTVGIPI
T7 sequence (Q07912 whole entry): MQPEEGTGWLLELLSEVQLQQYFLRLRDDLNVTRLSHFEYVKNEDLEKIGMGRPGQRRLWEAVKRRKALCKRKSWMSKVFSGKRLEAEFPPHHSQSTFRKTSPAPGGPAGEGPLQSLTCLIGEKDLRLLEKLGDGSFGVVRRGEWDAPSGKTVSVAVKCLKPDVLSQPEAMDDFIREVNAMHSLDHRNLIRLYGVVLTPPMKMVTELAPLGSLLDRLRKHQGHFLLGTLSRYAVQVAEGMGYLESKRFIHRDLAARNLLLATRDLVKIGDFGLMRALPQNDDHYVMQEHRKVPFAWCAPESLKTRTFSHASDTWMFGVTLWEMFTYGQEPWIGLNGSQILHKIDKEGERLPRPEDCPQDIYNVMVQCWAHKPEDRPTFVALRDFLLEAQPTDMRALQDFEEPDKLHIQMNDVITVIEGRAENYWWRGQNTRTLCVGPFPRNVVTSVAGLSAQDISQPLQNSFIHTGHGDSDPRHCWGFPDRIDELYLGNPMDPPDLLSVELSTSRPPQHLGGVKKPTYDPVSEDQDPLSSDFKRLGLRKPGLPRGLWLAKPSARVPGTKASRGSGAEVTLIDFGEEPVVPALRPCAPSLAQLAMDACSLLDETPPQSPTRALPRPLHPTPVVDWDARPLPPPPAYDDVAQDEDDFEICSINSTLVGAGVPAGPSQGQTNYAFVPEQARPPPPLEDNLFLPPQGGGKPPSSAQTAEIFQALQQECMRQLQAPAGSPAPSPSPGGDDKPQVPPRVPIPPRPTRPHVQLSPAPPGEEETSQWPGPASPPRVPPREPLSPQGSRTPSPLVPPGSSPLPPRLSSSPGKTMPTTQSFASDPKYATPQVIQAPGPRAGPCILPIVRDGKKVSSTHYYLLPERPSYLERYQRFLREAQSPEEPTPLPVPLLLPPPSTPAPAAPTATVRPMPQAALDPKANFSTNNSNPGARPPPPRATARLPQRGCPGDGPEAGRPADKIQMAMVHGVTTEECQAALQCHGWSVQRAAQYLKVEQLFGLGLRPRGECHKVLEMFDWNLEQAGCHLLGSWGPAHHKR
T1 sequence (Q13882 whole entry): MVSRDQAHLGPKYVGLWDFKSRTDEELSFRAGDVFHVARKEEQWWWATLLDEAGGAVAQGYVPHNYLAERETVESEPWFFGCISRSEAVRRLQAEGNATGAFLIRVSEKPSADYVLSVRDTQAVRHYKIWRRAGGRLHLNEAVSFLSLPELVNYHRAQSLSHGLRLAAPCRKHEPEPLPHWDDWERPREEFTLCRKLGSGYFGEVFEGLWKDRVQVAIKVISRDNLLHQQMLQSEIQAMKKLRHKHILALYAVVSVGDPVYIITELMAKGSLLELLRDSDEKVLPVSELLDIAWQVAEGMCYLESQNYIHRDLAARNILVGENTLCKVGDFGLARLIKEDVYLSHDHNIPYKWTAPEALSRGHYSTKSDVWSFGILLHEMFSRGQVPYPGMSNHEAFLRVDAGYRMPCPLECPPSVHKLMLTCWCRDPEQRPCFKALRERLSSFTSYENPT
T6 sequence (Q9BYT3 whole entry): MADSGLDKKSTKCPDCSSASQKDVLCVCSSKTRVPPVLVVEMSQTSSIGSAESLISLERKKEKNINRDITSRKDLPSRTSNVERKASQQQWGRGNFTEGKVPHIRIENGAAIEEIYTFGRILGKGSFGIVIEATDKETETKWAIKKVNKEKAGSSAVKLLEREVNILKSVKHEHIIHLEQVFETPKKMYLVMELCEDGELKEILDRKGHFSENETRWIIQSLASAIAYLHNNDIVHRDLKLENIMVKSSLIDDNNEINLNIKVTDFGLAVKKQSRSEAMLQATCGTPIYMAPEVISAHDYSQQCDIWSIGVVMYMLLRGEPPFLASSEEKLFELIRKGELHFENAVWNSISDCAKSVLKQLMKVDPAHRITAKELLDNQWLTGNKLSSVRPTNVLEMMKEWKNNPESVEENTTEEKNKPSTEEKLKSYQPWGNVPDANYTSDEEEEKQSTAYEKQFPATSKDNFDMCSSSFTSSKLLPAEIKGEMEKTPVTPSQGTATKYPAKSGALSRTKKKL

Structure (SMILES) | inhibition at 10 µM [1] [%] | inhibition at 10 µM [2] [%] | inhibition at 10 µM [3] [%] | inhibition at 10 µM [4] [%] | inhibition at 10 µM [5] [%] | inhibition at 10 µM [6] [%] | inhibition at 10 µM [7] [%] | inhibition at 10 µM [8] [%] | inhibition at 10 µM [9] [%]
CN1CCN(c2ccc(Nc3nccc(-c4cnn5ncccc45)n3)cc2C#N)CC1 [Compound 1] | 77 | 98.5 | 97 | 0 | 0 | 98.1 | 73.2 | 98.7 | 0
COc1ccc(Nc2nccc(-c3cnn4ncccc34)n2)cc1 [Compound 2] | 0 | 99.9 | 79.3 | 0 | 0 | 68.9 | 78.1 | 0 | 0
Cc1ccc(O)cc1Nc1ccnc(Nc2cccc(C(N)=O)c2)n1 [Compound 3] | 100 | 0 | 80.2 | 99.9 | 0 | 89.1 | 98.8 | 0 | 0
Cc1ccc(O)cc1N(C)c1ccnc(Nc2cccc(S(N)(=O)=O)c2)n1 [Compound 4] | 100 | 0 | 98.5 | 99.5 | 0 | 85.7 | 99.8 | 0 | 0
Fc1cccc(COc2ccc(Nc3ncnc4c3CN(CCN3CCOCC3)CC4)cc2Cl)c1 [Compound 6] | 0 | 0 | 0 | 0 | 0 | 0 | 0 | 0 | 0
COc1cc(Nc2nccc(-c3sc(N)nc3-c3cccc(NC(=O)c4c(F)cccc4F)c3)n2)cc(OC)c1OC [Compound 7] | 100 | 100 | 99.7 | 99.4 | 0 | 0 | 100 | 0 | 68.3
C[C@@H](Oc1cc(-c2cnc3ccccn23)sc1C(N)=O)c1ccccc1Cl [Compound 8] | 0 | 99.4 | 0 | 0 | 0 | 0 | 0 | 0 | 0
c1ccc(COc2cccc(-c3ccnc4[nH]ccc34)c2)cc1 [Compound 9] | 0 | 0 | 0 | 0 | 0 | 0 | 0 | 0 | 0
Clc1ccc(Nc2ncc(-c3ccccc3)s2)cc1 [Compound 10] | 0 | 0 | 0 | 0 | 0 | 0 | 0 | 0 | 0
Nc1ncc2c(-c3ccncc3)c[nH]c2n1 [Compound 11] | 0 | 0 | 82 | 0 | 0 | 0 | 0 | 0 | 79.6
